Laboratory results taken from patent US4368267A, “Epoxidation of lower α-olefins” (priority 1980, dated 1983).
Like-named read-outs stand apart in the source and are kept apart here.

Columns and labels:
[1] = test system: Methylococcus capsulatus (CRL M1, NRRL B-11,219); assay: Oxidation/epoxidation by washed cell suspensions; type: cell-based; settings: methane-grown washed cells
Description: (§1) The pH of the nutrient medium was adjusted to 7.0 by the addition of acid or base and 50 ml aliquots of the nutrient medium was charged into a plurality of 300 ml shake flasks. […] The isolates had been maintained on agar plates under an atmosphere of methane and air having a 1:1 v/v gas ratio which had been transferred every two weeks. The gaseous phase of the inoculated flasks was then replaced with a gas mixture comprised of methane and air having a ratio of 1:1 on a v/v basis. The inoculated flasks were sealed air tight and were incubated on a rotary shaker of orbital radius 2.5 cm at 250 rpm and at 30° C. for two days until the turbidity in the medium had developed.
(§2) The cells were harvested by centrifugation at 10,000 ×g at 4° C. for 30 minutes. The cell pellet was washed twice with a 0.15 M phosphate buffer at a pH of 7.0 (containing 0.002 M MgCl2). The washed cells were then suspended in a 0.15 M phosphate buffer at pH 7.0.
(§3) A 0.5 ml aliquot of each washed cell suspension (2 mg cells) was put into 10 ml vials at 4° C. which were sealed with a rubber cap. The gaseous phase of the vials was removed with vacuum and then was replaced with a gas mixture of alkene and oxygen at a 1:1 v/v ratio. It was then incubated at 30° C. on a rotary shaker at 300 rpm. Samples of product (3 μl) were withdrawn periodically with a microsyringe and the products were analyzed by gas chromatography (ionization flame detector column).
The experimental procedure described in Example 1 was used to prepare washed cell suspensions of methane-grown microorganisms and the use of the same to oxidize or epoxidize the branched chain alkanes, alkenes and dienes.

[2] = test system: Methylobacterium organophilum (CRL 26, NRRL B-11,222); assay: Epoxidation/hydroxylation by washed cell suspensions; type: cell-based
Description: (§4) The pH of the nutrient medium was adjusted to 7.0 by the addition of acid or base and 50 ml aliquots of the nutrient medium was charged into a plurality of 300 ml shake flasks. The shake flasks were inoculated with an inoculating loop of cells from an agar plate containing homogeneous colonies of the microorganisms on the plate (the purity of the isolates were confirmed by microscopic examination). The isolates had been maintained on agar plates under an atmosphere of methane and air having a 1:1 v/v gas ratio which had been transferred every two weeks. The gaseous phase of the inoculated flasks was then replaced with a gas mixture comprised of methane and air having a ratio of 1:1 on a v/v basis. The inoculated flasks were sealed air tight and were incubated on a rotary shaker of orbital radius 2.5 cm at 250 rpm and at 30° C. for two days until the turbidity in the medium had developed.
as §2, §3
Several experiments were carried out using a plurality of compounds capable of generating the necessary reducing power (NADH2 or NADPH2) required for the epoxidation of alkenes or dienes. These experiments were carried out using cell suspensions of methane grown methylotrophs using the procedure as described in Example 1 except that a stimulator compound was added to the reaction medium.

[3] = test system: Methylosinus trichosporium OB3b (NRRL B-11,196); assay: Methane hydroxylation and alkene epoxidation by washed cell suspensions; type: cell-based; settings: methane-grown washed cells
Description: as §1, §2
[…] The gaseous phase of the vials was removed with vacuum and then was replaced with a gas mixture of alkene and oxygen at a 1:1 v/v ratio. It was then incubated at 30° C. on a rotary shaker at 300 rpm. Samples of product (3 μl) were withdrawn periodically with a microsyringe and the products were analyzed by gas chromatography (ionization flame detector column).

[4] = test system: Methylocooccus capsulatus (Texas, NRRL B-11,201); assay: Isobutylene epoxidation by washed cell suspensions; type: cell-based, Methylococcus capsulatus; settings: methane-grown washed cells
Description: as §4
(§5) The cells were harvested by centrifugation at 10,000 ×g at 4° C. for 30 minutes. The cell pellet was washed twice with a 0.15 M phosphate buffer at a pH of 7.0 (containing 0.002 M MgCl2). […]
(§6) A 0.5 ml aliquot of each washed cell suspension (2 mg cells) was put into 10 ml vials at 4° C. which were sealed with a rubber cap. […] Samples of product (3 μl) were withdrawn periodically with a microsyringe and the products were analyzed by gas chromatography (ionization flame detector column). […]

[5] = test system: Methylosinus sp. (CRL 15 PMI, NRRL B-11,202); assay: Isobutylene epoxidation by washed cell suspensions; type: cell-based; settings: methane-grown washed cells
Description: as §4, §5, §6

[6] = test system: P(40), P(80), S(80) cell fractions of Methylosinus sp. (CRL-15, NRRL B-11,202); assay: Oxidation of n-alkanes and n-alkenes by cell fractions; type: biochemical; settings: P(40) particulate fraction, 30° C.
Description: Cells were washed twice with 25 mM potassium phosphate buffer, pH 7.0 containing 5 mM MgCl2. Cells were suspended in the same buffer. The cell suspensions at 4° C. were disintegrated by a single passage through a French Pressure cell (15,000 lb./in.^2) and centrifuged at 5000×g. for 15 min. to remove unbroken bacteria. The supernatant solution (crude extract) was then centrifuged at 40,000×g. for 30 min., yielding particulate P(40) and soluble S(40) fractions. The S(40) fraction was subsequently centrifuged at 80,000×g. for 60 min., yielding particulate P(80) and soluble S(80) fractions. The particulate fractions [P(40) and P(80)] were suspended in 25 mM potassium phosphate buffer, pH 7.0, containing 5 mM MgCl2 and homogenized at 4° C.
[…] The reaction mixtures contained in 1.0 ml: 150 mM potassium phosphate buffer, pH 7.0 containing 5 mM MgCl2, 0.6 ml; […] NADH, and cellular fraction.
Reaction mixtures were contained in 10 ml vials at 4° C. Vials were sealed with rubber caps. The gaseous phase in the vials was removed using vacuum and then was replaced with a gas mixture of methane or propylene and oxygen at a 1:1, v/v ratio. Oxidation of other gaseous n-alkanes and n-alkenes was examined as described above. For liquid substrates, 10 μl of substrate was used directly.
The products of epoxidation of n-alkenes and hydroxylation of n-alkanes were assayed by flame ionization gas chromatography using a stainless steel column (12'×1/8") packed with 10% Carbowax 20 M on 80/100 Chromosorb W and Porapak Q column. The column temperature was maintained isothermally at 120° C. The carrier gas flow rate was 30 ml/min. of helium. The various products were identified by retention time comparisons and co-chromatography with authentic standards.
Specific activities were expressed as μ moles of products formed per hour per mg. protein. Concentrations of protein in various fractions were determined by the method of Lowry et al., J. Biol. Chem. 193: 265-275 (1951).

[7] = test system: Methylocystis parvus OBBP (NRRL B-11,198); assay: Methane hydroxylation and alkene epoxidation by washed cell suspensions; type: cell-based; settings: methane-grown washed cells; 0.2 g/100 ml dry weight of cells
Description: (§7) The pH of the nutrient medium was adjusted to 7.0 by the addition of acid or base and 50 ml aliquots of the nutrient medium was charged into a plurality of 300 ml shake flasks. […] The isolates had been maintained on agar plates under an atmosphere of methane and air having a 1:1 v/v gas ratio which had been transferred every two weeks. […] The inoculated flasks were sealed air tight and were incubated on a rotary shaker of orbital radius 2.5 cm at 250 rpm and at 30° C. for two days until the turbidity in the medium had developed.
as §2, §3

[8] = test system: Methylomonas methanica S1 (NRRL B-11,199); assay: as above; type: cell-based; settings: methane-grown washed cells; 0.2 g/100 ml dry weight of cells
Description: as §7, §2, §3

[9] = test system: Methylosinus sporium 5 (NRRL B-11,197); assay: as above; type: cell-based; settings: methane-grown washed cells, 30° C.
Description: as §1, §2
A 0.5 ml aliquot of each washed cell suspension (2 mg cells) was put into 10 ml vials at 4° C. which were sealed with a rubber cap. […] It was then incubated at 30° C. on a rotary shaker at 300 rpm. Samples of product (3 μl) were withdrawn periodically with a microsyringe and the products were analyzed by gas chromatography (ionization flame detector column).

[10] = test system: Methylomonas albus BG8 (NRRL B-11,200); assay: as above; type: cell-based; settings: methane-grown washed cells; 0.2 g/100 ml dry weight of cells
Description: as §1, §2, §3

[11] = test system: whole cell suspensions of methylotrophs (C1 -utilizing microbes)
[12] = test system: in vivo methane mono-oxygenase system of the Bath strain; settings: formaldehyde at 4 mM; Stirling et al. 1979; cited from earlier work

## C=C(C)CC [2-methyl-1-butene]
[1]
  Reaction Rate, 2-methyl-1-butene to 2-methyl-1,2-epoxybutane: 0.128 μmoles/hr/mg biomass

## C=C(C)C [Isobutene]
[2]; methane-grown washed cells
  isobutylene oxide obtained from isobutylene: 140 nmoles per hr/mg protein
[1]
  Reaction Rate, isobutene to 1,2-epoxyisobutene: 0.46 μmoles/hr/mg biomass
[3]
  isobutylene oxide obtained from isobutylene: 480 nmoles per hr/mg protein
[4]
  isobutylene oxide obtained from isobutylene: 40 nmoles per hr/mg protein
[5]
  isobutylene oxide obtained from isobutylene: 550 nmoles per hr/mg protein

## C=C [Ethylene]
[6]
  Rate of Product Formation (substrate to 1,2-epoxide or alcohol): 1.27 μmoles/hr/mg of protein
[7]
  Conversion rate, ethylene to ethylene oxide: 0.9 μmole/hr/mg protein
[8]
  Conversion rate, ethylene to ethylene oxide: 0.95 μmole/hr/mg protein
[9]
  Conversion rate, ethylene to ethylene oxide: 1.1 μmole/hr/mg protein
[10]
  Conversion rate, ethylene to ethylene oxide: 1.2 μmole/hr/mg protein
[3]; 30° C.
  Conversion rate, ethylene to ethylene oxide: 1.9 μmole/hr/mg protein

## C=O [HCHO, formaldehyde]
[11]; concentration higher than 4 mM, all the strains tested
  Effect on epoxidation of propylene: inhibited the epoxidation
[11]; higher than 2.0 μmoles/0.5 ml
  Effect on propylene epoxidation and propane hydroxylation: inhibited both reactions
[11]; lower concentration (0.125 μmoles/015 ml)
  Effect on propylene epoxidation and propane hydroxylation: stimulated both the epoxidation of propylene and the hydroxylation of propane
[12]
  Stimulation of the epoxidation of propylene: 3-4 times
[2]; metabolite 4 mM, 1 Hr, control 1.4
  Epoxidation Rate, Propylene oxide: 1.2 μmoles/0.5 ml Assay
[2]; metabolite 4 mM, 2 Hr, control 2.2
  Epoxidation Rate, Propylene oxide: 2.0 μmoles/0.5 ml Assay
[2]; metabolite 4 mM, 3 Hr, control 2.6
  Epoxidation Rate, Propylene oxide: 2.1 μmoles/0.5 ml Assay
[2]; metabolite 10 mM, 1 Hr, control 1.4
  Epoxidation Rate, Propylene oxide: 1.2 μmoles/0.5 ml Assay
[2]; metabolite 10 mM, 2 Hr, control 2.2
  Epoxidation Rate, Propylene oxide: 1.9 μmoles/0.5 ml Assay
[2]; metabolite 10 mM, 3 Hr, control 2.6
  Epoxidation Rate, Propylene oxide: 2.0 μmoles/0.5 ml Assay
